# Test system: fecal coliform
# Experiment: Fecal coliform count of wastewater at the contact chamber exit after peracetic acid dosing
# Format: cell-based
# Details: post-sand filter wastewater, 60 min average contact time
# Procedure: Wastewater was diverted post-sand filter treatment at a wastewater treatment plant into a rectangular weir disinfectant contact chamber. The flow rate of wastewater through the contact chamber was set at seven gallons per minute; the average contact time in the contact chamber was 60 minutes.
# VigorOx® WWT peracetic acid (FMC Corporation; 15% peracetic acid, 23% hydrogen peroxide by weight) was dosed into the wastewater through Control Corporation lab grade pumps. In Comparative Experiment A, the PAA was introduced just prior to the wastewater's entrance into the contact chamber at a rate of 6.1 ppm. In Example 1, PAA was introduced just prior to the wastewater's entrance into the contact chamber at a rate of 1.5 ppm; and additionally at a point 50 minutes after the wastewater's entry into the contact chamber at a rate of 4.5 ppm. The fecal coliform count of the wastewater was measured at the point the wastewater exited from the contact chamber.
compound,measurement,setting,value
"CC(=O)OO [PAA, peracetic acid]",samples tested with no-detectable readings of coliform bacteria,"Comparative Experiment A: PAA added at a sole point just prior to entrance into contact chamber, 6.1 ppm",about 35%
same,samples tested with no-detectable readings of coliform bacteria,"Example 1: PAA added at two points, 1.5 ppm just prior to entrance and 4.5 ppm at 50 minutes after entry",about 50%
